According to patent publication US20150258105A1, “METHODS FOR ACUTE AND LONG-TERM TREATMENT OF ALCOHOL DEPENDENCE” (DemeRx, Inc., priority 2014, published 2015):
Entries after “also recorded” stand apart in the source; their conditions may differ.

What was measured:
[1] = Pharmacokinetics of noribogaine in healthy volunteers, ascending single oral dose (plasma, LCMSMS); conditions: for AUC0-216 / AUC0-∞ / Cmax / Tmax / t1/2 / CL/F: fasted healthy volunteers, mean (SD), n = 6; for mean AUC/24 hr / mean AUC/24: fasting conditions
[2] = Pharmacokinetics in opioid-dependent patients, Phase IB study (serum noribogaine); conditions: 60, 120, 180 mg cohorts
[3] = test system: healthy, drug-free male volunteers; test: Cold pressor test (analgesic effect) in healthy volunteers; format: in vivo, human
Description: Analgesic effect was assessed based on duration of hand immersion in ice water and on visual analog scale (VAS) pain scores upon hand removal from the water bath.
(§1) Safety and tolerability of noribogaine were tested in the group of volunteers from Example 1. […] Safety evaluations included clinical monitoring, recording of adverse events (AEs), safety laboratory tests, vital signs, ECG telemetry from −2 h to 6 h after dosing, and 12-lead electrocardiograms (ECGs) up to 216 hours post-dosing.

[4] = test system: healthy, drug-free male volunteers; test: Safety and tolerability of noribogaine in healthy humans (adverse events, vital signs, ECG); format: in vivo, human
Description: (§2) Pulse oximetry and capnography data were collected continuously using a GE Carescape B650 monitoring system from 2 hours prior to dosing and until six hours after dosing, and thereafter at 12, 24, 48 and 72 hours post-dosing. […] Pupillary miosis was assessed by pupillometry.
as §1

[5] = test system: opioid-dependent participants; test: Opiate withdrawal scales (COWS, SOWS, OOWS) in opioid-dependent participants; format: in vivo, human; conditions: first six hours following dosing
Description: Patients were evaluated based on the Clinical Opiate Withdrawal Scale (COWS), Subjective Opiate Withdrawal Scale (SOWS), and Objective Opiate Withdrawal Scale (OOWS) scoring systems over the period of time between administration of noribogaine (or placebo) until resumption of OST. These scales are outlined in Guidelines for the Psychosocially Assisted Pharmacological Treatment of Opioid Dependence, World Health Organization, Geneva (2009), Annex 10, which is incorporated herein by reference in its entirety. The scales measure the intensity of withdrawal symptoms, based on clinical, subjective, and objective indicia.

[6] = test system: opioid-dependent participants; test: QT interval prolongation (ΔQTc1) in opioid-dependent participants; format: in vivo, human; conditions: 60, 120, 180 mg, first 24 hours post administration
Description: Patients' QT intervals were evaluated at regular time points throughout the study.

[7] = test system: opioid-dependent participants; test: Treatment emergent adverse events in opioid-dependent participants, single dose
[8] = test system: opioid-dependent participants; test: Time to resumption of opioid substitution treatment (OST) in opioid-dependent participants; format: in vivo, human; conditions: single 180 mg dose
[9] = test system: patients dependent on alcohol; test: Effect of noribogaine on withdrawal from alcohol in humans; format: in vivo, human; conditions: single oral dose of 2 mg/kg, at least 2 hours after last alcohol use; self-evaluation and clinical observation
Description: Six patients are orally administered a single dose of 2 mg/kg noribogaine, and three patients receive placebo in a randomized, placebo-controlled, double-blind trial. All patients are dependent on alcohol. Treatment is administered at least 2 hours after last alcohol use.

[10] = test system: healthy, drug-free male volunteers; test: Pupillometry (pupillary miosis) in healthy volunteers; format: in vivo, human
Description: as §2
Summary statistics (means, standard deviations, and coefficients of variation) were determined for each dose group for safety laboratory test data, ECG and pharmacokinetic parameters, and pharmacodynamic variables. Categorical variables were analysed using counts and percentages. Dose-proportionality of AUC and Cmax was assessed using linear regression. The effect of dose on pharmacodynamic parameter values over time was assessed using two-factor analysis of variance (ANOVA). Pairwise comparisons (with Tukey-Kramer adjustment) between each dose group to the placebo were conducted at each time point using the least squares estimates obtained from the ANOVA, using SAS Proc Mixed (SAS ver 6.0).

[11] = 30 mg single oral noribogaine dose, plasma
[12] = 60 mg single oral noribogaine dose, plasma
[13] = across dose groups, healthy volunteers, plasma
[14] = after adjusting for baseline differences, p>0.9

CC[C@H]1C[C@@H]2C[C@H]3c4[nH]c5ccc(OC6OC(C(=O)O)C(O)C(O)C6O)cc5c4CCN(C2)[C@@H]13 (some centres unmarked) [Noribogaine glucuronide, noribogaine glucuronide]
AUC0-216 [1, 11]: 25.7 (9.1) ng · hr/ml
AUC0-∞ [1, 11]: 25.8 (9.3) ng · hr/ml
Cmax [1, 11]: 1.8 (0.6) ng/ml
Tmax [1, 11]: 3.0 (0.6) hr
t1/2 [1, 11]: 20.6 (4.9) hr
AUC0-216 [1, 12]: 65.0 (21.5) ng · hr/ml
AUC0-∞ [1, 12]: 67.1 (21.9) ng · hr/ml
Cmax [1, 12]: 4.1 (1.2) ng/ml
Tmax [1, 12]: 3.8 (1.2) hr
t1/2 [1, 12]: 23.1 (3.0) hr
mean half-life estimates [1, 13]: 21 to 23 h
time of peak concentrations after oral noribogaine dosing [1, 13]: 3 to 4 h
time by which detected in plasma of all subjects ([1]; after 30 mg or 60 mg oral noribogaine, healthy volunteers): ≤ 0.75 h
proportion of noribogaine glucuronide Cmax and AUC relative to noribogaine ([1]; both dose groups (30 mg and 60 mg)): 3-4%

CC[C@H]1CC2C[C@H]3c4[nH]c5ccc(O)cc5c4CCN(C2)C13 [noribogaine]
dose dependence of maximum serum concentration (Cmax) [2]: increased in a dose-dependent manner
analgesic effect in the cold pressor test ([3]; 3-60 mg single oral doses, 1° C. water): no analgesic effect
VAS pain scores, each dose group versus placebo (ANOVA) ([3]; after adjusting for baseline differences, p=0.17): no statistically significant differences
duration of hand immersion, each dose group versus placebo (ANOVA) [3, 14]: no statistically significant differences
number of adverse events reported ([4]; 3 mg dose group, by two subjects): five
number of adverse events reported ([4]; 10 mg dose group, by a single subject): one
number of adverse events reported ([4]; 30 mg dose group, by a single subject): one
oximetry, capnography, respiratory rate ([4]; 3-60 mg, healthy volunteers): no changes in oximetry or capnography, or changes in respiratory rate
vital signs and safety laboratory tests ([4]; 3-60 mg, healthy volunteers): no changes in vital signs or safety laboratory tests of note
QTcF values >500 msec ([4]; 3-60 mg, healthy volunteers, ECGs up to 216 hours post-dosing): no QTcF values >500 msec at any time
Adverse events, Mild ([4]; Dose 3 mg, healthy volunteers): Dizziness; also recorded: Epistaxis; also recorded: Headache; also recorded: Back pain
Adverse events, Moderate ([4]; Dose 3 mg, healthy volunteers): Headache
Adverse events, Mild ([4]; Dose 10 mg, healthy volunteers): Headache
Adverse events, Mild ([4]; Dose 30 mg, healthy volunteers): Headache
intensity of adverse events ([4]; all dose groups, all resolved prior to study completion): mild-moderate intensity
single increase in QTcF ([4]; one subject dosed with 10 mg, at 24 hours post-dosing): > 60 ms
withdrawal symptoms (COWS, OOWS, SOWS scores) ([5]; 120 mg, prior to resumption of OST): fewer withdrawal symptoms than the other patients
withdrawal symptoms versus placebo (COWS, OOWS, SOWS scores) ([5]; 60, 120, 180 mg): placebo generally experienced more withdrawal symptoms than patients who were administered noribogaine
CL/F ([1]; 3 mg single oral noribogaine dose, plasma): 41.4 (7.0) L/h
CL/F ([1]; 10 mg single oral noribogaine dose, plasma): 42.3 (12.0) L/h
CL/F [1, 11]: 46.9 (16.4) L/h
Tmax ([1]; 30 mg single oral noribogaine dose, plasma, listed as noribogaine free base): 1.75 h
CL/F [1, 12]: 34.0 (11.4) L/h
dose dependence of Cmax and AUC ([1]; 3-60 mg single oral doses, healthy volunteers): increased linearly with dose
Volume of distribution ([1]; across dose groups (3-60 mg), healthy volunteers): 1417 to 3086 L
time of peak concentrations after oral noribogaine dosing [1, 13]: 2 to 3 h
absorption after oral dosing ([1]; healthy volunteers): rapidly absorbed
mean AUC/24 hr ([1]; single dose of 3 mg noribogaine free base, healthy volunteers): 3.1 ng/mL
mean AUC/24 hr ([1]; single dose of 10 mg noribogaine free base, healthy volunteers): 10.6 ng/mL
mean AUC/24 ([1]; single dose of 30 mg noribogaine free base, healthy volunteers): 29.2 ng/mL
mean AUC/24 ([1]; single dose of 60 mg noribogaine free base, healthy volunteers): 61 ng/mL
QT interval prolongation (ΔQTc1) [6]: dose-dependent increase in QT interval prolongation
AE: Catheter Site Infection ([7]; 60 mg single dose, N = 6): 0
AE: Catheter Site Pain ([7]; 60 mg single dose, N = 6): 0
AE: Catheter Site Related Reaction ([7]; 60 mg single dose, N = 6): 0
AE: Cellulitis ([7]; 60 mg single dose, N = 6): 0
AE: Diarrhoea ([7]; 60 mg single dose, N = 6): 0
AE: Dry Mouth ([7]; 60 mg single dose, N = 6): 0
AE: Ear and Labyrinth Disorders ([7]; 60 mg single dose, N = 6): 0
AE: Epistaxis ([7]; 60 mg single dose, N = 6): 0
AE: Euphoric Mood ([7]; 60 mg single dose, N = 6): 0
AE: General Disorders and Administration Site Conditions ([7]; 60 mg single dose, N = 6): 0
AE: Hyperaesthesia ([7]; 60 mg single dose, N = 6): 0
AE: Infections and Infestations ([7]; 60 mg single dose, N = 6): 0
AE: Limb Discomfort ([7]; 60 mg single dose, N = 6): 0
AE: Malaise ([7]; 60 mg single dose, N = 6): 0
AE: Nausea ([7]; 60 mg single dose, N = 6): 0
AE: Oropharyngeal Pain ([7]; 60 mg single dose, N = 6): 0
AE: Pseudoparalysis ([7]; 60 mg single dose, N = 6): 0
AE: Respiratory, Thoracic and Mediastinal Disorders ([7]; 60 mg single dose, N = 6): 0
AE: Rhinorrhoea ([7]; 60 mg single dose, N = 6): 0
AE: Skin Discomfort ([7]; 60 mg single dose, N = 6): 0
AE: Skin Irritation ([7]; 60 mg single dose, N = 6): 0
AE: Skin and Subcutaneous Tissue Disorders ([7]; 60 mg single dose, N = 6): 0
AE: Somnoience ([7]; 60 mg single dose, N = 6): 0
AE: Tinnitus ([7]; 60 mg single dose, N = 6): 0
AE: Tremor ([7]; 60 mg single dose, N = 6): 0
AE: Urinary Tract Infection ([7]; 60 mg single dose, N = 6): 0
AE: Vomiting ([7]; 60 mg single dose, N = 6): 0
frequency of headaches ([7]; 60 mg treatment group): frequent
frequency of headaches ([7]; 120 mg dose group): attenuated
AE: Back Pain ([7]; 120 mg single dose, N = 6): 0
AE: Catheter Site Infection ([7]; 120 mg single dose, N = 6): 0
AE: Catheter Site Related Reaction ([7]; 120 mg single dose, N = 6): 0
AE: Depressed Mood ([7]; 120 mg single dose, N = 6): 0
AE: Dry Eye ([7]; 120 mg single dose, N = 6): 0
AE: Dyspepsia ([7]; 120 mg single dose, N = 6): 0
AE: Euphoric Mood ([7]; 120 mg single dose, N = 6): 0
AE: Limb Discomfort ([7]; 120 mg single dose, N = 6): 0
AE: Malaise ([7]; 120 mg single dose, N = 6): 0
AE: Musculoskeletal and Connective Tissue Disorders ([7]; 120 mg single dose, N = 6): 0
AE: Psychiatric Disorders ([7]; 120 mg single dose, N = 6): 0
AE: Somnoience ([7]; 120 mg single dose, N = 6): 0
AE: Urinary Tract Infection ([7]; 120 mg single dose, N = 6): 0
frequency of headaches ([7]; 180 mg dose group): attenuated
AE: Catheter Site Infection ([7]; 180 mg single dose, N = 6): 0
AE: Catheter Site Pain ([7]; 180 mg single dose, N = 6): 0
AE: Depressed Mood ([7]; 180 mg single dose, N = 6): 0
AE: Diarrhoea ([7]; 180 mg single dose, N = 6): 0
AE: Dry Eye ([7]; 180 mg single dose, N = 6): 0
AE: Dyspepsia ([7]; 180 mg single dose, N = 6): 0
AE: Ear and Labyrinth Disorders ([7]; 180 mg single dose, N = 6): 0
AE: Epistaxis ([7]; 180 mg single dose, N = 6): 0
AE: Euphoric Mood ([7]; 180 mg single dose, N = 6): 0
AE: Hyperaesthesia ([7]; 180 mg single dose, N = 6): 0
AE: Malaise ([7]; 180 mg single dose, N = 6): 0
AE: Oropharyngeal Pain ([7]; 180 mg single dose, N = 6): 0
AE: Pseudoparalysis ([7]; 180 mg single dose, N = 6): 0
AE: Psychiatric Disorders ([7]; 180 mg single dose, N = 6): 0
AE: Respiratory, Thoracic and Mediastinal Disorders ([7]; 180 mg single dose, N = 6): 0
AE: Rhinorrhoea ([7]; 180 mg single dose, N = 6): 0
AE: Skin Discomfort ([7]; 180 mg single dose, N = 6): 0
AE: Skin Irritation ([7]; 180 mg single dose, N = 6): 0
AE: Skin and Subcutaneous Tissue Disorders ([7]; 180 mg single dose, N = 6): 0
AE: Somnoience ([7]; 180 mg single dose, N = 6): 0
AE: Tinnitus ([7]; 180 mg single dose, N = 6): 0
AE: Tremor ([7]; 180 mg single dose, N = 6): 0
hallucinatory effects ([7]; 60, 120 or 180 mg single dose, opioid-dependent participants): no hallucinatory effects
Time to resumption of OST compared with untreated patients and 60 mg [8]: still longer than untreated patients (7 hours, not shown) or those administered 60 mg noribogaine
symptoms of alcohol withdrawal compared to placebo [9]: fewer and/or less severe symptoms of alcohol withdrawal
pupillary constriction ([10]; 3-60 mg single oral doses, dark-adapted pupil diameter up to 216 hours): no evidence of pupillary constriction
pupil diameter, each dose group versus placebo (ANOVA) [10, 14]: no statistically significant differences
